Experimental data published in US10731159B2, “Cationic lipid” (DAIICHI SANKYO COMPANY, LIMITED, priority 2013, dated 2020).

What was measured:
[1] = tested on: human hepatocellular carcinoma HuH-7 cell line; experiment: Test Example 11: expression level of luciferase (FLuc mRNA) in HuH-7 cells; format: cell-based; settings: six hours after transfection; for expression level of luciferase, RLU: average N=3
Protocol: The concentration of a human hepatocellular carcinoma HuH-7 cell line was adjusted to 10,000 cells/mL in a DMEM medium (manufactured by Invitrogen Corp.) containing 10% fetal bovine serum (culture medium). Then, the resulting culture solution was inoculated at 100 μL/well to a 96-well flat-bottomed plate (manufactured by Corning Inc./Falcon) and cultured at 37° C. for 1 day under 5.0% CO2. The nucleic acid lipid particle dispersion prepared in Example 58 was diluted with a culture medium to prepare dilution series having final mRNA concentrations of 2, 0.4, and 0.08 μg/mL in the medium. Then, each dilution was added to the cells after removal of the culture supernatant, and the culture was further continued. This operation was performed at N=3 for each concentration. A control group was cultured in only a culture medium.
Six hours after the transfection, the expression level of luciferase was measured using Luciferase reporter Gene Assay, high sensitivity (manufactured by F. Hoffmann-La Roche, Ltd.) according to the attached document.

[2] = Ratio of polynucleotide/mRNA to lipid (wt/wt); format: physicochemical
Protocol: The nucleic acid lipid particle dispersion was mixed with acetonitrile and chloroform at a ratio of 1:1:1 and centrifuged at 15,000 rpm for 2 minutes. Then, the aqueous layer obtained as an upper layer was recovered, followed by the extraction of the double-stranded polynucleotide. The amount of the double-stranded polynucleotide in the sample was measured by ion-exchange chromatography (system: Agilent 1100 series, column: TSKgel DEAE-2SW (2.6×150 mm) (Tosoh Corp), buffer A: 20% acetonitrile, buffer B: 20% acetonitrile and 1.6 M ammonium formate, gradient (B %): 30-55% (0-20 min), flow rate: 1 mL/min, temperature: 40° C., detection: 260 nm).
The amount of the phospholipid in the nucleic acid lipid particle dispersion was measured using Phospholipid C-Test Wako (Wako Pure Chemical Industries Ltd.) according to the attached document. Specifically, the phospholipid in the sample was quantified in the presence of a 1% Triton X-100 detergent.
(§1) The amounts of cholesterol and LP in the nucleic acid lipid particle dispersion were measured by reverse-phase chromatography (system: Agilent 1100 series, column: Chromolith Performance RP-18 endcapped 100-3 monolithic HPLC-column (Merck), buffer A: 0.01% trifluoroacetic acid, buffer B: 0.01% trifluoroacetic acid and methanol, gradient (B %): 87-92% (0-10 min), flow rate: 2 mL/min, temperature: 50° C., detection: 205 nm).
(§2) The total amount of lipids was calculated from the amount of the phospholipid and the compositional ratio of lipid components constituting the liposome, and the ratio of the polynucleotide to the lipid was calculated from the aforementioned amount of the polynucleotide and the total amount of lipids according to the following expression: [Double-stranded polynucleotide concentration]/[Total lipid concentration] (wt/wt)
as §2, with “phospholipid, the amount of cholesterol, and the amount of LP,” for “phospholipid”
The amount of the double-stranded polynucleotide in a sample from the nucleic acid lipid particle dispersion was measured in the presence of a 5% Triton X-100 detergent by ion-exchange chromatography (system: Agilent 1100 series, column: DNAPac PA200 (4×250 mm) (Thermo Fisher Scientific K.K.), buffer A: 10 mM Tris, 25 mM sodium perchlorate, and 20% ethanol, pH 7.0, buffer B: 10 mM Tris, 250 mM sodium perchlorate, and 20% ethanol, pH 7.0, gradient (B %): 20-70% (0-15 min), flow rate: 0.5 mL/min, temperature: 40° C., detection: 260 nm).
as §1, with “82-92%” for “87-92%”
The total amount of lipids was calculated from the amount of the phospholipid, the amount of cholesterol, and the amount of LP, and the compositional ratio of lipid components constituting the liposome, and the ratio of the mRNA to the lipid was calculated from the “amount of the mRNA in the presence of the detergent” of the preceding paragraph (2) according to the following expression: [mRNA concentration in the presence of the detergent]/[Total lipid concentration] (wt/wt)

[3] = Average particle size of nucleic acid lipid particle (NICOMP 380ZLS); format: physicochemical
Protocol: The particle size of the liposome was measured using Zeta Potential/Particle Sizer NICOMP™ 380ZLS (Particle Sizing Systems, LLC). In the tables, the average particle size is indicated by a volume-average particle size, and the numeric value following ±represents a deviation.

[4] = Rate of encapsulation of polynucleotide/mRNA (Quant-iT RiboGreen, with and without Triton X-100); format: physicochemical
Protocol: The rate of encapsulation of the double-stranded polynucleotide was measured using Quant-iT RiboGreen RNA Assay kit (Invitrogen Corp.) according to the attached document.
(§3) Specifically, the double-stranded polynucleotide in the nucleic acid lipid particle dispersion was quantified in the presence and absence of a 0.015% Triton X-100 detergent, and the rate of encapsulation was calculated according to the following expression: {[Amount of the double-stranded polynucleotide in the presence of the detergent]−[Amount of the double-stranded polynucleotide in the absence of the detergent]}/[Amount of the double-stranded polynucleotide in the presence of the detergent]}×100(%) (3) Ratio of Double-Stranded Polynucleotide to Lipid
The rate of encapsulation of the mRNA was measured using Quant-iT RiboGreen RNA Assay kit (Invitrogen Corp.) according to the attached document.
as §3, with “mRNA” for “double-stranded polynucleotide”, “mRNA” for “Double-Stranded Polynucleotide”

[5] = particles of Example 31, volume-average particle size ± deviation
[6] = particles of Example 31: DSPC:Chol:LP:PEG-C-DMA=20:48:30:2, CT-157/CT-169 double-stranded polynucleotide

Ratio of polynucleotide to lipid siRNA/lipid ([2]; particles of Example 31, total lipids calculated from phospholipid, cholesterol and LP amounts (Table 4)) | Structure (SMILES) | expression level of luciferase, RLU ([1]; FLuc mRNA concentration 0.08 μg/mL) | expression level of luciferase, RLU ([1]; FLuc mRNA concentration 0.4 μg/mL) | expression level of luciferase, RLU ([1]; FLuc mRNA concentration 2.0 μg/mL) | expression of FLuc (in words) ([1]; particle of Example 58) | Average particle size [3, 5] | Rate of polynucleotide encapsulation [4, 6] | Ratio of polynucleotide to lipid siRNA/lipid ([2]; Example 55: particles prepared as in Example 31) | Ratio of polynucleotide to lipid siRNA/lipid ([2]; particles of Example 31, total lipids calculated from phospholipid amount and compositional ratio (Table 3)) | Average particle size ([3]; Example 55: particles prepared as in Example 31, ± deviation) | Rate of polynucleotide encapsulation ([4]; Example 55: particles prepared as in Example 31 (β-catenin double-stranded polynucleotide))
0.072 wt/wt | CCCCC/C=C\C/C=C\CCCCCCCC(CCCCCCCCCC)OC(=O)OCCCN(C)C (stereo not shown) [Example 8, 3-Dimethylaminopropyl(9Z,12Z)-octacosa-19,22-dien-11-yl Carbonate] | 0.7 1 × 10^5 | 2.7 1 × 10^5 | 3.7 1 × 10^5 | promote the expression of FLuc | 157 ± 46 nm | 96.4% | – | – | – | –
– | CCCCC/C=C\C/C=C\CCCCCCCCC(CCCCCCCC/C=C\C/C=C\CCCCC)OC(=O)OCCN(C)C [Reference Example 2, 2-(Dimethylamino)ethyl(6Z,9Z,28Z,31Z)-heptatriaconta-6,9,28,31-tetraen-19-yl Carbonate, reference compound] | – | – | – | – | 139 ± 50 nm | 89.0% | 0.055 wt/wt | 0.104 wt/wt | 165 ± 11 nm | 94%
